Experimental findings from PMC7915867, “Discovery of a Small Molecule Inhibitor of Human Adenovirus Capable of Preventing Escape from the Endosome” (International Journal of Molecular Sciences, 2021) are described below.

Data set [1] deals with wild-type HAdV5. In words: Nuclear-associated HAdV genomes. The format is cell-based, human adenovirus. As to conditions: 45 min postinfection, A549 cells, 2000 vp/cell, 10-fold IC50. The procedure: The nuclear delivery of HAdV genomes was evaluated by real-time PCR following nuclear isolation from infected cells. […] Forty-five minutes after infection, A549 cells were trypsinized, collected, and then washed twice with PBS. After that, we separated cytoplasmic and nuclear fractions using a hypotonic buffer solution and NP-40 detergent and resuspended the cell pellet in 500 μL of 1 × hypotonic buffer (20 mM Tris-HCl pH 7.4, 10 mM NaCl, 3 mM MgCl2). After incubation for 15 min at 4 °C, 25 μL of NP-40 was added and the samples were vortexed. The homogenates were centrifuged for 10 min at 835g and 4 °C. After the removal of the cytoplasmic fraction (supernatant), HAdV DNA was separated from the nuclear fraction (pellet) and from the cytoplasmic fraction using the E.Z.N.A.® Tissue DNA Kit (Omega Bio-tek, Norcross, GA, USA).

The nature of data set [2]: Cytotoxicity assay (AlamarBlue). The class given is cell-based. The settings on record: human, A549 cells, A549 cell line. The procedure:
The cytotoxicity of these derivatives was tested by commercial kit AlamarBlue® (Ref. DAL1025, Invitrogen, MA, USA). […] The cytotoxic concentration 50 (CC50) value was obtained by using the statistical package GraphPad Prism. This assay was performed in duplicate.

Data set [3] has as its system HAdV5. In words: HAdV-mediated endosome disruption (α-sarcin co-delivery assay). The settings on record: A549 cells, 10-fold IC50, virus below 12 ng. The class given is cell-based, human adenovirus. The procedure:
A549 cells (~20,000 cells/well) were incubated in DMEM without cysteine or methionine supplemented with 10% dialyzed FBS [DMEM (−)] in black 96-well plates for 1 h before infection. […] The medium was then removed and replaced with 50 μL DMEM (−) containing 0.1 mg/mL α-sarcin (Santa Cruz Biotechnology, Dallas, TX, USA) and the virus and drug mixtures. After 2 h at 37 °C, the Click-iT HPG Alexa Fluor 488 Protein Synthesis Assay Kits (Invitrogen, MA, USA) were used to analyze protein synthesis according to the manufacturer’s instructions. The incorporation of the amino acid analog of methionine L-homopropargylglycine (HPG) containing Alexa Fluor 488 azide was measured using a Typhoon 9410 imager (GE Healthcare Life Sciences, MA, USA) and calculated subtracting the background level of the control well containing L-homopropargylglycine (HPG) and α-sarcin but not virus (100% incorporation).

The test system of data set [4] is HAdV5-GFP. In words: microbe, parasite or virus in culture. The format is cell-based, human adenovirus. The procedure: Compounds were measured at concentrations of 10 μM and in a dose−response assay ranging from 10 to 0.3 μM using low MOI infections (0.06 vp/cell) in a plaque assay. […] Cells were infected with HAdV5-GFP (0.06 vp/cell) and rocked for 2 h at 37 °C, when cells reached 80%–90% confluency. When the incubation was finished, the inoculum was removed followed by washing the cells once with PBS. […] The compounds were also added to the mixture in concentrations ranging from 10 to 0.3 μM. After incubation for 7 days at 37 °C, we scanned plates with a Typhoon FLA 9000 imager (GE Healthcare Life Sciences, MA, USA) and quantified plaques with ImageJ [47].

The test system of data set [5] is HAdV5-GFP. In words: Time of addition assay. The class given is cell-based, human adenovirus. As to conditions: 10-fold IC50; 293β5 cells, HAdV5-GFP 2000 vp/cell.
For data set [6], the system named is HAdV-5 DNA replication. In words: HAdV DNA quantification by real-time PCR (DNA replication). The format is cell-based, human adenovirus. As to conditions: Human adenovirus sp., A549, 24 h; read-out: Inhibition of HAdV-5 DNA replication (qPCR). The procedure: All samples were carried out in duplicate. After incubation for 24 h at 37 °C, DNA was purified from the cell lysate with the E.Z.N.A.® Tissue DNA Kit (Omega Bio-tek, Norcross, GA, USA) following the manufacturer’s instructions. TaqMan primers and probes for a common region of the HAdV5 hexon were designed with the GenScript Real-Time PCR (TaqMan) Primer Design software (GenScript, Leiden, Netherlands). Oligonucleotides sequences were: AQ1: 5′-GCCACGGTGGGGTTTCTAAACTT-3′; AQ2: 5′-GCCCCAGTGGTCTTACATGCACAT-3′; Probe: 6-FAM-5′-TGCACCAGACCCGGGCTCAGGTACTCCGA-3′-TAMRA. Real-time PCR mixtures contained 9.5 μL of the purified DNA, AQ1 and AQ2 at a concentration of 200 nM each and Probe at a concentration of 50 nM in a total volume of 25 μL. The PCR cycling protocol was 95 °C for 3 min followed by 40 cycles of 95 °C for 10 s and 60 °C for 30 s. Human glyceraldehyde-3-phosphate dehydrogenase (GAPDH) gene was applied as internal control. Oligonucleotides sequences for GAPDH and conditions were previously reported by Rivera et al..
For quantification, gene fragments from hexon and GAPDH were cloned into the pGEM-T Easy vector (Promega, MA, USA), and known concentrations of template were used to produce a standard curve in parallel for each experiment. All assays were done in thermal cycler LightCycler® 96 System (Roche, Basel, Switzerland).
In general terms: In qPCR the cycle at which signal appears reflects the starting amount.

The test system of data set [7] is human cytomegalovirus (HCMV). In words: HCMV DNA replication assay. The class given is cell-based. The settings on record: HFF cells, 72 h postinfection, 10-fold IC50 of HAdV plaque assay. The procedure:
The broad antiviral activity of compound 16 was tested using human cytomegalovirus (HCMV) in a DNA replication assay. To avoid the influence of newly generated viral particles from subsequent rounds of infection, HCMV DNA was extracted from HFF cells at 72 h postinfection and quantified in a single round of infection as a measurement of the DNA replication efficiency.

Data set [8] has as its system HAdV-GFP. In words: Thermostability assay (capsid stabilization). The format is cell-based, human adenovirus. The settings on record: 50 μM, A549 cells. The procedure:
HAdV-GFP (37.5 ng) was incubated with compound 16 (50 µM) or the same volume of DMSO for 1 h in complete DMEM. Parallel samples were incubated for 10 min at the indicated temperatures, cooled to r.t., and added to A549 cells on ice to synchronize the infection. After the incubation, cells were washed twice with PBS 1x to remove the nonattached virus and the excess of compound 16 and DMSO. Cells were then incubated for 24 h at 37 °C and 5% CO2 before being visualized for GFP expression in an Olympus inverted microscope Model IX71 (Hamburg, Germany) and analyzed by capturing representative images of each condition using the CellSens Dimension platform (Olympus, Hamburg, Germany).

Data set [9] deals with wild-type HAdV5. In words: Virus yield reduction (virus burst assay). The class given is cell-based, human adenovirus. The procedure: After 48 h, cells were harvested and subjected to three rounds of freeze/thaw. Serial dilutions of clarified lysates were titrated on A549 cells (3 × 10^4 cells/well), and we calculated TCID50 values using an endpoint dilution method.

Structures are written as SMILES. “And” between values parts separate entries of the source, which are not always exact repeats. Equal entries are not always repeated.

Regarding `O=C(NCC1CCCCC1)c1cc(Cl)ccc1O` [Compound 16, 5-Chloro-N-(cyclohexylmethyl)-2-hydroxybenzamide], the “Inhibition of HAdV DNA accessibility to the nucleus” value in data set [1] is given as “more than 99%”. The compound further returned a CC50 at 48 h in [2] of 91.2 ± 18.4 µM. In addition, the HAdV-mediated endosome lysis result in data set [3] is “prevented HAdV-mediated endosome lysis”. In data set [4] (HAdV5-GFP, low MOI, 293β5 cell line), the “Plaque Assay IC50” value was “submicromolar”. Also, the inhibition at 10 µM in data set [4] (Human adenovirus sp., read-out: Plaque Assay (10 μM) (%) Inhibition) is 100%. The IC50 in [4] (Human adenovirus sp., read-out: Plaque Assay IC50) was 0.78 ± 0.01 µM. For the same compound, the “Selectivity Index (SI)” value in [4] (ratio of CC50 to IC50 in plaque assay) amounted to 116.9. Also, in [5], the “Inhibition of HAdV infection, compound added at 0 min p.i.” value was 95.3% and the “Inhibition of HAdV infection, compound added at 20 min p.i.” value is 30.7%. Further, the inhibition at 7.8 µM in data set [6] was determined as 50%. The “Decrease of total HCMV DNA compared to DMSO control” value in data set [7] came out at 95%. Moreover, in data set [8], the “GFP expression 24 h postinfection, virus heated to 48 °C” value is “significant levels of GFP expression” and the “GFP expression 24 h postinfection, virus heated to 52 °C” value was “some residual expression”. For the same compound, the “Virus yield reduction compared to niclosamide” value in data set [9] (16 at 10-fold IC50 versus niclosamide 5 μM) is 2.5 fold. The “Virus Yield Reduction” value in [9] (A549 cells, HAdV 100 vp/cell, 48 h, niclosamide 5 μM, 16 at 10-fold IC50, versus DMSO) was 208 fold and 208 ± 108 fold.

One may read the CC50 as the concentration that lowers cell viability or growth by half. The inhibition is how much of the control response was suppressed. In general, IC50 refers to the midpoint of a concentration-inhibition curve.
